Measured values: patent US11491165B2 (Kinoxis Therapeutics Pty Ltd, priority 2016, dated 2022)

Experiments:
[1] = target: T1, vasopressin 1a receptor (V1aR) (Homo sapiens, UniProt P37288); assay: IP1 accumulation assay, V1aR-expressing HEK-293 cells (agonist and antagonist assessment); assay type: cell-based; settings: for EC50: agonist assessment, IP1, 1 h; for IC50: antagonist assessment vs AVP 25 nM (~EC70), IP1
T1 construct: expressed in transfected cells
Protocol: Cells were subsequently maintained in 10% DMEM containing hygromycin (80 μg/ml), penicillin (100 U/ml), streptomycin (0.1 mg/ml) and blasticidine S hydrochloride (15 μg/ml).
Cells were incubated in tetracycline (2 μg/mL) for 48 h to induce receptor expression. Intracellular IP1 levels induced by activation of the Gq protein coupled to the OTR and V1aR was indexed using the HTRF IP-One kit (CisBio International, Bedford, Mass., USA), according to manufacturer's protocol. For agonist assessment, cells were incubated with logarithmically-spaced concentrations of compounds (1 nM-100 μM) for 1 h prior to the addition of Ab-Cryptate and IP1-d2 for 1 h. The contents of each well were transferred to a white-walled proxy plate (Perkin Elmer) and fluorescence read using a Pherastar Microplate reader (BMG Labtech, Cary, N.C., USA). […] IP1 levels in the presence of compounds and OT or AVP were expressed as a percentage of levels seen with OT or AVP in the presence of vehicle control. Concentration response curves for OT and AVP were determined after 5 min incubation in drug or vehicle, and the data fitted using GraphPad PRISM to a 4-parameter logistic equation of the form y=Min+(Max−Min)/(1+10^((logEC50−X)*n)) where X is drug concentration and n is the H-ill slope. Data represent the mean±s.d. of at least 3 independent experiments, each in duplicate.

[2] = target: T2, oxytocin receptor (OXTR), hOTR (Homo sapiens, UniProt P30559); assay: IP1 accumulation assay, OTR-expressing HEK-293 cells (agonist and antagonist assessment); assay type: cell-based; settings: for Emax: HEK293, read-out: OXTR Emax (% OXT); for EC50 (OXTR agonist potency, mean ± s.d.) / EC50: agonist assessment; for EC50 (OXTR agonist potency, mean ± s.d.) / IC50: IP1; for EC50: IP1, 1 h; for IC50: antagonist assessment vs OT 30 nM (~EC70); for OV function: ratio of OXTR functional potency to V1aR functional potency, 'OT only' = function at OXTR only
T2 construct: expressed in transfected cells
T2 sequence (P30559 1-389): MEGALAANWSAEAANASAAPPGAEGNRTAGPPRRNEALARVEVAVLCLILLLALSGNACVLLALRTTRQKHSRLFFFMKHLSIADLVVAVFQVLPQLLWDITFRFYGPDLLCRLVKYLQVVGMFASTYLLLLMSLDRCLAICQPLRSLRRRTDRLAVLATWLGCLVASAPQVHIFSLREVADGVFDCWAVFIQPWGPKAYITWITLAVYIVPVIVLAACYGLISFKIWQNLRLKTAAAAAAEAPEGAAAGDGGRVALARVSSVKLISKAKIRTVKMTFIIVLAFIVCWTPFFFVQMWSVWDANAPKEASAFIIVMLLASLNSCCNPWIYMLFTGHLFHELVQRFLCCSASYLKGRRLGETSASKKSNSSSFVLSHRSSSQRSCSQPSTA
Protocol: (§1) Human embryonic kidney cells (HEK-293) transfected to stably express untagged hOTR and V1aR using the Flp-In™ T-REx™ system (Life Technologies, Carlsbad, Calif. USA) were established as reported in Jorgensen et al., 2016 (the entire disclosure of which is hereby incorporated by reference). Cells were subsequently maintained in 10% DMEM containing hygromycin (80 μg/ml), penicillin (100 U/ml), streptomycin (0.1 mg/ml) and blasticidine S hydrochloride (15 μg/ml).
OTR or V1aR-expressing HEK-293 cells were seeded onto poly-L-lysine (100 μg/ml)-coated 384-well plates at a density of 8.75×10^3 cells per well. Cells were incubated in tetracycline (2 μg/mL) for 48 h to induce receptor expression. Intracellular IP1 levels induced by activation of the Gq protein coupled to the OTR and V1aR was indexed using the HTRF IP-One kit (CisBio International, Bedford, Mass., USA), according to manufacturer's protocol. For agonist assessment, cells were incubated with logarithmically-spaced concentrations of compounds (1 nM-100 μM) for 1 h prior to the addition of Ab-Cryptate and IP1-d2 for 1 h. The contents of each well were transferred to a white-walled proxy plate (Perkin Elmer) and fluorescence read using a Pherastar Microplate reader (BMG Labtech, Cary, N.C., USA). For antagonist assessment, cells were incubated an ˜EC70 concentration of OT (30 nM) or AVP (25 nM) mixed with compounds (1 nM-100 μM) or vehicle control for 1 h. IP1 levels in the presence of compounds and OT or AVP were expressed as a percentage of levels seen with OT or AVP in the presence of vehicle control. Concentration response curves for OT and AVP were determined after 5 min incubation in drug or vehicle, and the data fitted using GraphPad PRISM to a 4-parameter logistic equation of the form y=Min+(Max−Min)/(1+10^((logEC50−X)*n)) where X is drug concentration and n is the H-ill slope. Data represent the mean±s.d. of at least 3 independent experiments, each in duplicate.

[3] = target: T1, vasopressin 1a receptor (V1aR); assay: Competition radioligand binding, [3H]-vasopressin, V1aR-expressing HEK293 membranes; settings: [3H]-vasopressin 2 nM, 90 min 4 °C
Protocol: as §1
(§2) To induce receptor expression, cells were incubated with tetracycline (2 μg/mL) for 48 h. PBS with 5 mM EDTA (pH 7.4) was used to detach OTR and V1aR-expressing HEK293 cells from culture flasks. Harvested cells were centrifuged at 1200 g for 5 min and were resuspended in homogenization buffer (50 mM HEPES, 5 mM EDTA, 5 mM MgCl2; pH 7.4) prior to homogenization using an Ultra-Turrax homogeniser (IKA, Wilmington, N.C., USA). Homogenates were centrifuged three times for 30 min at 48.000 g, 4° C. for 30 min and membrane pellets resuspended in 50 mM Tris HCl, 5 mM MgCl2 (pH 7.4). A bicinchoninic acid assay was used according to the manufacturer's protocol (Bio-Rad, Hercules. Calif., USA) to measure final protein concentration. Membranes were stored at −80° C. until use in competition radioligand binding studies.
(§3) Reactions were incubated for 90 min at 4° C. to reach equilibrium, and terminated by rapid filtration over glass fibre filters (Whatman GF/A […]; Millipore, Darmstadt, Germany), and washing with ice-cold reaction buffer. Filters were dried, then incubated with Microscint 0 (Perkin Elmer) for 30 min before radioactivity was detected with a Microbeta2 2450 microplate-reader (Perkin Elmer). […] Specific binding in the presence of compounds was expressed as a percentage of specific binding in the presence of vehicle control. A sum-of-squares F-test was used to compare the goodness of fit of one-site, two-site and sigmoidal with variable hill slope binding models, and to calculate Ki's using Graphpad Prism (Graphpad Software, La Jolla, Calif., USA).

[4] = target: T2, oxytocin receptor (OXTR), hOTR; assay: Competition radioligand binding, [3H]-oxytocin, OTR-expressing HEK293 membranes; settings: [3H]-oxytocin 10 nM, 90 min 4 °C
Protocol: as §1, §2, §3

T1 sequence (P37288 whole entry): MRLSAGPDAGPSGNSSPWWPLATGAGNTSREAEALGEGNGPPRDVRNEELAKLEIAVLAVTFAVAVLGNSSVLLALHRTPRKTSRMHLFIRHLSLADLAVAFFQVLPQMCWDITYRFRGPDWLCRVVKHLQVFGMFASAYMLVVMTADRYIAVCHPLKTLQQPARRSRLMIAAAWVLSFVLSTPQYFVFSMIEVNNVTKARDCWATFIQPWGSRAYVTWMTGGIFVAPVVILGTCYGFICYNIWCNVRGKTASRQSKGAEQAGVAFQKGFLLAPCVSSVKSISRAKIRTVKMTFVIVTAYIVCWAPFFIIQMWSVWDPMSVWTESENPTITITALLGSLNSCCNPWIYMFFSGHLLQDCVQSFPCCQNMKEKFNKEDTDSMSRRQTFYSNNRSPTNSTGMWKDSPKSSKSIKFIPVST

Structure (SMILES)	EC50 [1]	IC50 [1]	Emax [2]	EC50 (OXTR agonist potency, mean ± s.d.) [2]	EC50 [2]	Ki [3]	Ki [4]	melting point	IC50 [2]	OV function [2]
Cn1ncc2c1Nc1ccccc1N(C(=O)c1ccccc1)C2 [WJ0685, (1-Methyl-4,10-dihydrobenzo[b]pyrazolo[3,4-e][1,4]diazepin-5 (1H)-yl)(phenyl)methanone]	> 10 µM	> 10 µM	11.9%	0.2977 ± 0.0713 µM	0.847 ± 0.244 µM	0.0816 ± 0.0126 µM	> 10 µM	> 300 °C	–	–
COc1cc(CN2Cc3cnn(C)c3Nc3ccccc32)cc(OC)c1 [WJ0625, 5-(3,5-Dimethoxybenzyl)-1-methyl-1,4,5,10-tetrahydrobenzo[b]pyrazolo[3,4-e][1,4]diazepine]	> 10 µM	> 10 µM	–	–	> 10 µM	> 10 µM	> 10 µM	210 to 212 °C	> 10 µM	–
Cn1ncc2c1Nc1ccccc1N(C(=O)c1cc(F)cc(F)c1)C2 [WJ0681, (3,5-Difluorophenyl)(1-methyl-4,10-dihydrobenzo[b]pyrazolo[3,4-e][1,4]diazepin-5 (1H)-yl)methanone]	> 10 µM	2.21 ± 0.406 µM	10.9%	0.2727 ± 0.0694 µM	0.521 ± 0.0352 µM	0.0478 ± 0.0094 µM	0.755 ± 0.164 µM	290 to 292 °C (dec.)	–	0.24
Cn1ncc2c1Nc1ccccc1N(Cc1cc(O)cc(O)c1)C2 [WJ0627, 5-((1-Methyl-4,10-dihydrobenzo[b]pyrazolo[3,4-e][1,4]diazepin-5(1H)-yl)methyl)benzene-1,3-diol]	> 10 µM	> 10 µM	–	–	> 10 µM	> 10 µM	> 10 µM	236 to 238 °C	> 10 µM	–
Cn1ncc2c1Nc1ccccc1N(C(=O)c1ccccn1)C2 [WJ0759, (1-Methyl-4,10-dihydrobenzo[b]pyrazolo[3,4-e][1,4]diazepin-5 (1H)-yl)(pyridin-2-yl)methanone]	> 10 µM	> 10 µM	–	–	> 10 µM	1.12 ± 0.26 µM	> 10 µM	269 to 271 °C (dec.)	> 10 µM	–
Cn1ncc2c1Nc1ccccc1N(C(=O)C1CC1)C2 [CA3 (KA), cyclopropyl(1-methyl-4,10-dihydrobenzo[b]pyrazolo[3,4-e][1,4]diazepin-5 (1H)-yl)methanone]	> 10 µM	> 10 µM	–	–	> 10 µM	3.37 ± 0.74 µM	> 10 µM	207 to 209 °C	> 10 µM	–
Cc1ccc2c(c1)N(C(=O)c1ccccc1)Cc1cnn(C)c1N2 [WJ07117Me, (1,7-Dimethyl-4,10-dihydrobenzo[b]pyrazolo[3,4-e][1,4]diazepin-5 (1H)-yl)(phenyl)methanone]	> 10 µM	> 10 µM	–	–	> 10 µM	0.924 µM	4.07 ± 1.22 µM	235 to 238 °C	> 10 µM	–
COc1ccc2c(c1)N(C(=O)c1ccccc1)Cc1cnn(C)c1N2 [WJ07117MeO, (7-Methoxy-1-methyl-4,10-dihydrobenzo[b]pyrazolo[3,4-e][1,4]diazepin-5 (1H)-yl)(phenyl)methanone]	> 10 µM	> 10 µM	–	–	> 10 µM	0.374 µM	> 10 µM	248 to 250 °C	> 10 µM	–
Cc1ccc(S(=O)(=O)N2Cc3cnn(C)c3Nc3ccccc32)cc1 [WJ0641, 1-Methyl-5-tosyl-1,4,5,10-tetrahydrobenzo[b]pyrazolo[3,4-e][1,4]diazepine]	> 10 µM	> 10 µM	–	–	> 10 µM	> 10 µM	> 10 µM	184 to 186 °C	> 10 µM	–
COc1cc(OC)cc(C(=O)N2Cc3cnn(C)c3Nc3ccccc32)c1 [WJ0629, (3,5-Dimethoxyphenyl)(1-methyl-4,10-dihydrobenzo[b]pyrazolo[3,4-e][1,4]diazepin-5 (1H)-yl)methanone]	> 10 µM	0.0948 ± 0.0077 µM	–	–	> 10 µM	0.0129 ± 0.0015 µM	0.316 ± 0.0792 µM	279 to 281 °C (dec.)	1.77 µM	18.63
Cn1ncc2c1Nc1ccccc1N(C(=O)c1ccc(C(F)(F)F)cc1)C2 [WJ0677, (1-Methyl-4,10-dihydrobenzo[b]pyrazolo[3,4-e][1,4]diazepin-5 (1H)-yl)(4-(trifluoromethyl)phenyl)methanone]	> 10 µM	> 10 µM	7.72%	0.1933 ± 0.0113 µM	0.179 ± 0.0378 µM	0.0969 ± 0.0335 µM	0.56 ± 0.111 µM	204 to 206 °C	–	–
Cn1ncc2c1Nc1ccccc1N(C(=O)C13CC4CC(F)(CC(F)(C4)C1)C3)C2 [WJ0807dF, ((1r,3R,5S,7r)-3,5-Difluoroadamantan-1-yl)(1-methyl-4,10-dihydrobenzo[b]pyrazolo[3,4-e][1,4]diazepin-5 (1H)-yl)methanone]	> 10 µM	> 10 µM	26.7%	0.6677 µM	4.15 ± 1.34 µM	2.21 µM	> 10 µM	262 to 264 °C (dec.)	–	–
